Where two headings read alike, the source gives them in different places.

The assay deals with recombinant human GPR52 (Homo sapiens, UniProt Q9Y2T5). Put plainly: HTRF cAMP assay, GPR52 activity (Example A). The assay is classed as cell-based. The essentials: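 Flp-In CHO cells stably expressing human GPR52 (20,000/well) incubated 30 min at room temperature with compound, cAMP then quantified by competitive HTRF. EC50 from nonlinear fits of cAMP-transformed data normalized to positive control; Emax is top plateau at 10 or 31.6 μM, given as % of a reference agonist's Emax.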

[1] abbreviates: average EC50 (n=1 to 15), Flp-In-CHO cells stably expressing recombinant human GPR52, cAMP HTRF, read-out: EC50 (N=).
The mark [2] stands for this setting: maximum cAMP at 10 μM or 31.6 μM test compound, as percentage of Emax of control compound 4-(3-(3-fluoro-5-(trifluoromethyl)benzyl)-5-methyl-4,5-dihydro-1H-1,2,4-triazol-1-yl)-2-methylbenzamide.

Sequence of recombinant human GPR52 (Q9Y2T5 whole entry): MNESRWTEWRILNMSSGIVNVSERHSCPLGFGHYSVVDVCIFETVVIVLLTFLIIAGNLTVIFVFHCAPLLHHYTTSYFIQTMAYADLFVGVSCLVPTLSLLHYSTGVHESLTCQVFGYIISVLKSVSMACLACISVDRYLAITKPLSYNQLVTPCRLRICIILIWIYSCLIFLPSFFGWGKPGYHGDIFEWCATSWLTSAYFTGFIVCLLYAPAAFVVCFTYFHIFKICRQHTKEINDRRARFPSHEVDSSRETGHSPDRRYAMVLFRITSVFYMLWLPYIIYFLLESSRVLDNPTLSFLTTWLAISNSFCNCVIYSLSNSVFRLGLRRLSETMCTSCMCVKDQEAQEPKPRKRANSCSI

For the compound `Cc1cc(-c2cc(N)nc(Oc3ccc4nn(C)cc4c3)c2)ccc1C(N)=O` [Example 15, 4-(2-amino-6-((2-methyl-2H-indazol-5-yl)oxy)pyridin-4-yl)-2-methylbenzamide], the EC50 under setting [1] is 1000 to 2000 nM. Also, under setting [2], the maximal response (Emax) was determined as 72%.
Consider `CCc1cc(-c2cc(Oc3cnc4c(C)nn(C)c4c3)ccn2)ccc1C(N)=O` [Example 1, 4-(4-((1,3-dimethyl-1H-pyrazolo[4,3-b]pyridin-6-yl)oxy)pyridin-2-yl)-2-ethylbenzamide], for which the EC50 is 270 nM (Flp-In-CHO cells expressing human GPR52, read-out: average EC50) and 101 to 1000 nM under setting [1]. For the same compound, the Emax is, setting by setting: under setting [2], 106%; (percentage of Emax of control compound) 106%.
Regarding `Cc1cc(-c2cc(Oc3ccc4c(C(F)(F)F)nn(C)c4c3)ccn2)ccc1C(N)=O` [Example 37, 2-methyl-4-(4-((1-methyl-3-(trifluoromethyl)-1H-indazol-6-yl)oxy)pyridin-2-yl)benzamide], the EC50 under setting [1] was 101 to 1000 nM. Moreover, the Emax under setting [2] is 81%.
The matching figures for `NC(=O)c1ccc(-c2cc(Oc3ccc4ccncc4c3)ccn2)cc1Cl` [Example 80, 2-chloro-4-(4-(isoquinolin-7-yloxy)pyridin-2-yl)benzamide]: 101 to 1000 nM and 54%.
As to `CCc1cc(-c2cc(Oc3cnc4cnn(C)c4c3)cc(N)n2)ccc1C(N)=O` [Example 17, 4-(6-amino-4-((1-methyl-1H-pyrazolo[4,3-b]pyridin-6-yl)oxy)pyridin-2-yl)-2-ethylbenzamide], the concentration for a half-maximal effect (EC50) under setting [1] lay within 101 to 1000 nM. Also, the maximal effect (Emax) under setting [2] was 102%.
`Cc1cc(-c2cc(Oc3cnc4c(c3)c(C)nn4C)cc(N)n2)ccc1C(N)=O` [Example 23, 4-(6-amino-4-((1,3-dimethyl-1H-pyrazolo[3,4-b]pyridin-5-yl)oxy)pyridin-2-yl)-2-methylbenzamide]: under setting [1], the EC50 is 101 to 1000 nM. Besides, the Emax under setting [2] worked out at 107%.
The matching figures for `CCc1cc(-c2cc(Oc3ccc4c(C(F)(F)F)nn(C)c4c3)ccn2)ccc1C(=O)NC` [Example 64, 2-ethyl-N-methyl-4-(4-((1-methyl-3-(trifluoromethyl)-1H-indazol-6-yl)oxy)pyridin-2-yl)benzamide]: 101 to 1000 nM and 81%.
For `NC(=O)c1ccc(-c2cc(Oc3ccc4cnccc4c3)ccn2)cc1Cl` [Example 82, 2-chloro-4-(4-(isoquinolin-6-yloxy)pyridin-2-yl)benzamide], the concentration for a half-maximal effect (EC50) under setting [1] was 101 to 1000 nM. In addition, the Emax under setting [2] is 110%.
Taken in the same sequence, the figures for `Cc1cc(-c2cc(Oc3ccc4ncc(F)cc4c3)ccn2)ccc1C(N)=O` [Example 96, 4-(4-((3-fluoroquinolin-6-yl)oxy)pyridin-2-yl)-2-methylbenzamide] were 101 to 1000 nM and 120%.
Taken in the same sequence, the figures for `CCc1cc(-c2cc(Oc3ccc4c(F)nn(C)c4c3)ccn2)ccc1C(N)=O` [Example 132, 2-ethyl-4-(4-((3-fluoro-1-methyl-1H-indazol-6-yl)oxy)pyridin-2-yl)benzamide] were 25 to 100 nM and 110%.
The matching figures for `CCc1cc(-c2cc(Oc3cnc4c(C)nn(C)c4c3)ccn2)ccc1C(=O)NC` [Example 60, 4-(4-((1,3-dimethyl-1H-pyrazolo[4,3-b]pyridin-6-yl)oxy)pyridin-2-yl)-2-ethyl-N-methylbenzamide]: 101 to 1000 nM and 102%.
Consider `Cc1cc(-c2cc(Oc3ccc4ncc(Cl)cc4c3)ccn2)ccc1C(N)=O` [Example 99, 4-(4-((3-chloroquinolin-6-yl)oxy)pyridin-2-yl)-2-methylbenzamide], for which the EC50 under setting [1] lay in the range of 101 to 1000 nM. Besides, the maximal response (Emax) under setting [2] came to 138%.
Taken in the same sequence, the figures for `Cn1ncc2ccc(Oc3ccnc(-c4ccc(C(N)=O)c(C(F)(F)F)c4)c3)cc21` [Example 47, 4-(4-((1-methyl-1H-indazol-6-yl)oxy)pyridin-2-yl)-2-(trifluoromethyl)benzamide] were 101 to 1000 nM and 88%.
On to `Cc1cc(-c2cc(Oc3ccc4occc4c3)ccn2)ccc1C(N)=O` [Example 83, 4-(4-(benzofuran-5-yloxy)pyridin-2-yl)-2-methylbenzamide], for which, under setting [1], the EC50 lay in the range of 101 to 1000 nM. Also, the Emax under setting [2] was found to be 153%.
Taken in the same sequence, the figures for `CCc1cc(-c2cc(Oc3cnc4c(F)cc(F)cc4c3)ccn2)ccc1C(N)=O` [Example 117, 4-(4-((6,8-difluoroquinolin-3-yl)oxy)pyridin-2-yl)-2-ethylbenzamide] were 101 to 1000 nM and 115%.
The matching figures for `CCc1cc(-c2cc(Oc3cnc4c(C(F)(F)F)cccc4c3)ccn2)ccc1C(N)=O` [Example 109, 2-ethyl-4-(4-((8-(trifluoromethyl)quinolin-3-yl)oxy)pyridin-2-yl)benzamide]: 101 to 1000 nM and 75%.
`CCc1cc(-c2cc(Oc3ccc4cnn(C)c4c3)cc(N)n2)ccc1C(N)=O` [Example 18, 4-(6-amino-4-((1-methyl-1H-indazol-6-yl)oxy)pyridin-2-yl)-2-ethylbenzamide]: the 50% effective concentration (EC50) under setting [1] lay within 101 to 1000 nM. Further, under setting [2], the maximal effect (Emax) is 107%.
For the compound `Cc1cc(-c2cc(Oc3ccc4ccoc4c3)ccn2)ccc1C(N)=O` [Example 87, 4-(4-(benzofuran-6-yloxy)pyridin-2-yl)-2-methylbenzamide], the EC50 under setting [1] was in the range of 101 to 1000 nM. Further, under setting [2], the Emax was 68%.
The matching figures for `CCc1cc(-c2cc(Oc3ccc4c(c3)c(F)nn4C)ccn2)ccc1C(N)=O` [Example 133, 2-ethyl-4-(4-((3-fluoro-1-methyl-1H-indazol-5-yl)oxy)pyridin-2-yl)benzamide]: 101 to 1000 nM and 141%.
Turning to `CCc1cc(-c2cc(Oc3ccc4ncccc4c3F)ccn2)ccc1C(N)=O` [Example 106, 2-ethyl-4-(4-((5-fluoroquinolin-6-yl)oxy)pyridin-2-yl)benzamide], the EC50 under setting [1] fell in the range of 101 to 1000 nM. In addition, under setting [2], the maximal effect (Emax) is 100%.
For the compound `Cc1cc(-c2cc(Oc3ccc4cnn(C)c4c3)cc(N)n2)ccc1C(N)=O` [Example 21, 4-(6-amino-4-((1-methyl-1H-indazol-6-yl)oxy)pyridin-2-yl)-2-methylbenzamide], the concentration giving a half-maximal response (EC50) under setting [1] lay in the range of 101 to 1000 nM. The Emax under setting [2] was determined as 99%.
In the case of `Cc1cc(-c2cc(Oc3cnc4c(F)c(F)ccc4c3)ccn2)ccc1C(N)=O` [Example 116, 4-(4-((7,8-difluoroquinolin-3-yl)oxy)pyridin-2-yl)-2-methylbenzamide], the EC50 under setting [1] was 25 to 100 nM. Besides, under setting [2], the Emax worked out at 62%.
For `CCc1cc(-c2cc(Oc3ccc4cn[nH]c4c3)ccn2)ccc1C(N)=O` [Example 41, 4-(4-((1H-indazol-6-yl)oxy)pyridin-2-yl)-2-ethylbenzamide], under setting [1], the EC50 fell in the range of 101 to 1000 nM. In addition, the maximum response (Emax) under setting [2] came out at 125%.
Taken in the same sequence, the figures for `Cc1cc(-c2cc(Oc3cnc4c(F)cc(F)cc4c3)ccn2)ccc1C(N)=O` [Example 118, 4-(4-((6,8-difluoroquinolin-3-yl)oxy)pyridin-2-yl)-2-methylbenzamide] were 101 to 1000 nM and 85%.
As for `CCc1cc(-c2cc(Oc3ccc4ncc(C)cc4c3)ccn2)ccc1C(N)=O` [Example 107, 2-ethyl-4-(4-((3-methylquinolin-6-yl)oxy)pyridin-2-yl)benzamide], under setting [1], the EC50 lay within 25 to 100 nM. Further, the maximal response (Emax) under setting [2] amounted to 146%.
Regarding `CCc1cc(-c2cc(Oc3cnc4c(c3)c(C)nn4C)cc(N)n2)ccc1C(N)=O` [Example 22, 4-(6-amino-4-((1,3-dimethyl-1H-pyrazolo[3,4-b]pyridin-5-yl)oxy)pyridin-2-yl)-2-ethylbenzamide], under setting [1], the EC50 lay in the range of 101 to 1000 nM. Also, under setting [2], the maximal response (Emax) was 123%.

The values are drawn from US20260167615A1, “COMPOUNDS AND COMPOSITIONS AS GPR52 MODULATORS” (Neurocrine Biosciences, Inc., priority 2022, published 2026).
